Reference: patent publication US20230310347A1, “BACTERICIDE” (priority 2020, published 2023)

Columns and labels:
[1] = system: Propionibacterium acnes (GAI 5419); test: Bactericidal property (Propionibacterium acnes), number of viable bacteria; format: cell-based; settings: for bactericidal effects against Cutibacterium acnes (in words): each ingredient alone, concentration not given
Protocol: Propionibacterium acnes (GAI 5419) was inoculated on a GAM agar medium (manufactured by Nissui Pharmaceutical Co., Ltd.) and precultured under anaerobic conditions at 35° C.±1° C. for 18 to 24 hours. A solution containing Propionibacterium acnes was prepared by diluting the solution to 10^7 to 10^8 bacteria/mL of Propionibacterium acnes with physiological saline.
Next, 10 mL of the samples obtained in Preparation Example 1 were inoculated with 0.1 mL of the above-mentioned solution containing Propionibacterium acnes. These were stored at room temperature for 30 minutes and then diluted 10-fold with an SCDLP agar medium (manufactured by Nihon Pharmaceutical Co., Ltd.) and neutralized. These were poured onto a GAM agar medium (manufactured by Nissui Pharmaceutical Co., Ltd.) according to the pour plate culture method, and anaerobically cultured at 35° C.±1° C. for 2 to 5 days. After that, the numbers of viable bacteria were determined from the numbers of colonies formed and the dilution factor. It is noted that physiological saline was used for the control in place of the samples.
The numbers of viable bacteria were determined in the same manner as Experiment Example 1-1 except that the samples obtained in Preparation Example 1 were changed to the samples obtained in Preparation Example 2.
The numbers of viable bacteria were determined in the same manner as Experiment Example 1-1 except that the samples obtained in Preparation Example 1 were changed to the above-mentioned Samples α30 to α33.
Furthermore, Sample β20 (100 μg/mL of Hinokitiol+100 μg/mL of linalool) was prepared in the same manner as Sample al except that tea tree oil was changed to linalool.

[2] = Storage stability of ingredient (B) alone or mixed with Hinokitiol, GC area percentage; format: physicochemical
Protocol: The storage stability of limonene alone and the storage stability of limonene mixed with Hinokitiol were evaluated.
Specifically, limonene was placed in a glass vial, which was hermetically sealed by tightening a septum with an aluminum cap.
Furthermore, 50 parts by mass of limonene and 50 parts by mass of Hinokitiol were mixed, placed in a glass vial different from the above-described glass vial, and hermetically sealed by tightening a septum with an aluminum cap. These two samples were stored at 60° C. for 7 days, and the area percentage of limonene in the glass vials was measured by GC (the instrument: GC-2010 Plus manufactured by Shimadzu Corporation; the detector: flame ionization detector; the column: DB-624 manufactured by Agilent Technologies Japan, Ltd.) immediately after the start of the experiment, after 1 day, after 4 days, and after 7 days. The initial data (immediately after the start of the experiment) was the GC measurement result of limonene alone.
Regarding α-terpinene, γ-terpinene, and terpinen-4-ol, the storage stability of each of these alone and the storage stability of each of these mixed with Hinokitiol were evaluated.
Specifically, measurements were made in the same manner as Experiment Example 6-1 except that limonene was changed to α-terpinene, γ-terpinene, and terpinen-4-ol, respectively. It is noted that, regarding γ-terpinene, GC measurements were only made immediately after the start of the experiment, after one day, and after seven days.

[3] = 60° C., After 1 day, Hinokitiol Absent
[4] = 60° C., After 1 day, Hinokitiol Present (50:50 parts by mass)
[5] = 60° C., After 4 days, Hinokitiol Absent
[6] = 60° C., After 4 days, Hinokitiol Present (50:50 parts by mass)
[7] = 60° C., After 7 days, Hinokitiol Absent
[8] = 60° C., After 7 days, Hinokitiol Present (50:50 parts by mass)
[9] = Immediately after the start of the experiment, Hinokitiol Absent
[10] = Immediately after the start of the experiment, Hinokitiol Present (initial data = GC result of ingredient alone)

Compound | bactericidal effects against Propionibacterium acnes (in words) ([1]; 100 μg/mL, Tables 1 and 2) | bactericidal effects against Propionibacterium acnes (in words) ([1]; 50 βg/mL, Table 5) | bactericidal effects against Cutibacterium acnes (in words) [1] | residual ratio (area percentage (%)) [2, 3] | residual ratio (area percentage (%)) [2, 4] | residual ratio (area percentage (%)) [2, 5] | residual ratio (area percentage (%)) [2, 6] | residual ratio (area percentage (%)) [2, 7] | residual ratio (area percentage (%)) [2, 8] | residual ratio (area percentage (%)) [2, 9] | residual ratio (area percentage (%)) [2, 10] | storage stability (in words) ([2]; when combined with a phenol derivative typified by Hinokitiol, Tables 10 to 13)
CC1=CCC(O)(C(C)C)CC1 (stereo not shown) [Terpinen-4-ol, terpinen-4-ol] | insufficient bactericidal effects | insufficient bactericidal effects | insufficient | 92.86% | 97.13% | 84.09% | 96.83% | 74.45% | 96.52% | 96.94% | 96.94% | –
CC1=CC=C(C(C)C)CC1 [α-Terpinene, α-terpinene] | no bactericidal effects | no bactericidal effects | almost no bactericidal effects | 85.27% | 82.68% | 81.54% | 77.11% | 78.45% | 70.49% | 89.95% | 89.95% | –
Cc1cc(O)ccc1C(C)C [Isopropylmethylphenol, 4-isopropyl-3-methylphenol] | insufficient bactericidal effects | – | – | – | – | – | – | – | – | – | – | –
CC1=CCC(C(C)C)=CC1 [γ-Terpinene, γ-terpinene] | no bactericidal effects | no bactericidal effects | almost no bactericidal effects | 92.09% | 92.22% | – | – | 85.49% | 84.44% | 96.81% | 96.81% | –
(+)-Limonene | no bactericidal effects | no bactericidal effects | almost no bactericidal effects | 95.67% | 96.49% | 95.45% | 96.57% | 94.43% | 96.41% | 96.85% | 96.85% | superior storage stability
CC(C)c1cccc(=O)c(O)c1 [Hinokitiol] | insufficient bactericidal effects | insufficient bactericidal effects | – | – | – | – | – | – | – | – | – | –
